Data on 40 molecules can be found in US12435061B2 (priority 2020, dated 2025).

pIC50: −log10 of the molar value. ≈ marks a conversion by molar mass, not a printed value. Where only a bound is given, the exact number is not on record here.

The target of series [1] is T1, hTRPV3 (Homo sapiens (Human), UniProt Q8NET8). The series can be described thus: Whole-cell patch clamp, hTRPV3 Phase 1 / Phase 2 currents. The format is cell-based. To be noted: Phase 1 current; for pIC50: inward, whole-cell patch clamp, read-out: hTRPV3 Patch P1 Inwd; for IC50: read-out: hTRPV3 (nM) (Phase 1). Put shortly:
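Currents are activated by 20 μM 2-APB or by perfusate at 28 °C or warmer, in Ringer's solution, and quantified at ±80 mV.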

The nature of series [2]: Aqueous solubility assay in Normal Ringer Solution. To be noted: Normal Ringer Solution; for Solubility Ringer (nM): room temperature; for solubility at 40 min: saline or isotonic, kinetic from dmso stock. The protocol:
Following vortex and incubation for a sufficient time (e.g. 40 minutes at room temperature), solutions were filtered, quenched with acetonitrile, and analyzed by Liquid Chromotography. Solubility Limits were determined by comparison to a standard curve.

Series [3] in a line: Metabolic Stability assay, rat liver microsomes. Particulars: for half-life at 1 μM: read-out: LM T1/2 (min) (rat). The format is in vitro ADME. A digest of the protocol: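 Reactions in human or rat liver microsomes at 37 °C were started with an NADPH-regenerating system, using 1 μM compound initially. Samples were taken at 0, 7, 15, 30 and 60 min, quenched in ice-cold acetonitrile/MeOH/H2O, and quantified by HPLC/MS/MS.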
(In general: Liver microsomes are a subcellular fraction often used to study metabolism.)

The target of series [4] is T1, hTRPV3. The series is described as follows: hTRPV3 HAMA IC50 assay (Hamamatsu FDSS6000 calcium flux, TRex-293 cells). Particulars: for pIC50: read-out: hTRPV3 HAMA IC50, 2-APB stimulated calcium flux. (In general: Calcium flux is commonly read through the fluorescence of an indicator in the cells.)
Experimental: IC50s were calculated using CBIS from ChemInnovation (San Diego).
The target of series [5] is T1, hTRPV3. The series can be described thus: FLIPR Assay (calcium flux, HEK293 cells stably expressing TRPV3). Format: cell-based. Particulars: for pIC50: read-out: FLIPR IC50; for IC50: FLIPR IC50 (uM). The protocol:
In Tables 3 and 4, Phase 1 refers to Phase 1 current for human (h) TRPV3 or rat (r) TRPV3, and Phase 2 refers to Phase 2 current for human (h) TRPV3 or rat (r) TRPV3. The hTRPV3 and rTRPV3 assays were performed as described herein. hERG refers to the inhibition the human ERG (hERG) channel. NaV1.5, refers to the pore forming aL-subunit of the voltage-dependent cardiac Na(+) channel and is an integral membrane protein involved in the initiation and conduction of action potentials. hTRPV3 HAMA IC50 refers to the IC50 of TRPV3 cells stably expressed in TRex-293 cells. Solubility Ringer refers to the compounds' solubility in Ringer's solution. LM T1/2 refers to liver microsome half-lives in either rat or human liver microsomes. FLIPR IC50 refers to the IC50 of the test compounds against recombinant hTRPV3 cells.
The cells were treated with IBSS and 20 mM HEPES adjusted to pH 7.4 in the presence of the fluorescent calcium indicator e.g. Fluo-4AM (5 uM) and the plates were incubated at 37° C. and […] for approximately 1 hour and cooled to room temperature. […] Relative Fluorescence Units (RFU) were measured for each response for signal maximum minus minimum during approximately 90 seconds after addition.

[6] abbreviates: hTRPV3 HAMA IC50 (nM) (5 min), 5 min.
The mark [7] stands for this setting: hTRPV3 HAMA IC50 (nM) (30 min), 30 min.

T1 sequence (Q8NET8 whole entry): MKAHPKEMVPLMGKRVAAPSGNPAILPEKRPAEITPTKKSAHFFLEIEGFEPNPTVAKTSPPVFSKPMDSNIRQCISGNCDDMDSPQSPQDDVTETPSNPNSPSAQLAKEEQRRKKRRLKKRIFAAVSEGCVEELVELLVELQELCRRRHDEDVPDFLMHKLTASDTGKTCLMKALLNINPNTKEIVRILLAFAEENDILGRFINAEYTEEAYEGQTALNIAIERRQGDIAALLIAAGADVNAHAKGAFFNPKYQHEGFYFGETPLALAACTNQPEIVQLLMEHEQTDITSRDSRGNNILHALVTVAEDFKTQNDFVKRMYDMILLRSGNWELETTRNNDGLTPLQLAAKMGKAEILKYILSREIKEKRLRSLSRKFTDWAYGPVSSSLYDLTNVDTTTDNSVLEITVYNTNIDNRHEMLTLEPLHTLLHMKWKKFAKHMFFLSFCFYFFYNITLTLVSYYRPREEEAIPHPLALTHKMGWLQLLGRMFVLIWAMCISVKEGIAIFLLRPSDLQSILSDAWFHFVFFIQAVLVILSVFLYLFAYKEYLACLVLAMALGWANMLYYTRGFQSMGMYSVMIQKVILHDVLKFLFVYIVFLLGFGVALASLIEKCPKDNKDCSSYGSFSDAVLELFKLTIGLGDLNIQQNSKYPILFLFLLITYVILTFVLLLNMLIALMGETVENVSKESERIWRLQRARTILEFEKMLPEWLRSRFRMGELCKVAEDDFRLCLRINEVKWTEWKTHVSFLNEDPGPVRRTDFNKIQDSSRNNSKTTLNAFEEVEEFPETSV

Take `Cc1ccccc1Oc1ccc(N2CC[C@H](Oc3ncccc3Cl)C2)c(CCO)c1` [Compound 1-235, (S)-2-(2-(3-(3-chloropyridin-2-yloxy)pyrrolidin-1-yl)-5-(o-tolyloxy)phenyl)ethanol]: the pIC50 on hTRPV3 [1] was 7.00 to 8.00. Further, the IC50 at hTRPV3 [1] is 19.9 nM; at hTRPV3 [4] (setting [6]), above 20000 nM; at hTRPV3 [4] (setting [7]), 6600 nM. Moreover, in series [2], the “Solubility Ringer (nM)” value is “BLQ”. The half-life at 1 μM in series [3] came to 21.9 min.
Usually solubility stands for the dissolved amount per volume that the medium holds. As to `COc1ccccc1Oc1ccc(N2CC[C@H](Oc3ncccc3Cl)C2)c(CCO)c1` [Compound 1-237, (S)-2-(2-(3-(3-chloropyridin-2-yloxy)pyrrolidin-1-yl)-5-(2-methoxyphenoxy)phenyl)ethanol], the pIC50 at hTRPV3 [1] is 6.00 to 7.00. The IC50 was 251 nM on hTRPV3 [1], above 20000 nM at hTRPV3 [4] (setting [6]) and 19800 nM on hTRPV3 [4] (setting [7]). In series [2], this molecule displayed a solubility at 40 min of around 1.5 µM (≈ 0.661 µg/mL). For the same molecule, the half-life at 1 μM in series [3] worked out at 8.33 min.
As for `Cc1ccccc1Oc1ccc(CO)c(N2CC[C@H](Oc3ncccc3Cl)C2)c1` [Compound 1-241, (S)-(2-(3-(3-chloropyridin-2-yloxy)pyrrolidin-1-yl)-4-(o-tolyloxy)phenyl)methanol], on hTRPV3 [1], the pIC50 was 7.00 to 8.00 and the IC50 came out at 18.6 nM. For the same molecule, the solubility at 40 min in series [2] was around 0.37 µM (≈ 0.152 µg/mL). In addition, in series [3], the half-life at 1 μM came out at 6.19 min. For the same molecule, the “hTRPV3 HAMA IC50 (nM) (5 min)” value at hTRPV3 [4] (5 min) is listed as “no fit (5 min) no fit (30 min)”. For the same molecule, on hTRPV3 [4] (30 min), the “hTRPV3 HAMA IC50 (nM) (30 min)” value is recorded as “no fit (5 min) no fit (30 min)”.
With `COc1cncc(C(=O)N2CCC(c3ccc(-c4ccccc4C4CC4)cc3CO)C2)n1` (centres unmarked) [Compound 2-125], the pIC50 is 5.75 at hTRPV3 [5] and 7.00 on hTRPV3 [4].
As to `COc1ncc(C(=O)N2CCC(c3ccc(-c4ccccc4C4CC4)cc3CO)C2)nc1C` (centres unmarked) [Compound 2-126], the pIC50 on hTRPV3 [5] is 5.93; on hTRPV3 [4] it was 7.08.
Regarding `O=C(c1ncon1)N1CCC(c2ccc(-c3ccccc3C3CC3)cc2CO)C1` (centres unmarked) [Compound 2-127], the pIC50 on hTRPV3 [5] is 5.72; on hTRPV3 [4] it was 6.89.
The like results for `Cc1nc(C(=O)N2CCC(c3ccc(-c4ccccc4C4CC4)cc3CO)C2)no1` (centres unmarked) [Compound 2-128] were, in that order, 5.73 and 6.32.
Take `Cc1nnc(C(=O)N2CCC(c3ccc(-c4ccccc4C4CC4)cc3CO)C2)o1` (centres unmarked) [Compound 2-129]: at hTRPV3 [5], the pIC50 is below 5.00.
As to `O=C(c1cnc(O)cn1)N1CCC(c2ccc(-c3ccccc3C3CC3)cc2CO)C1` (centres unmarked) [Compound 2-130], the IC50 on hTRPV3 [5] was 4.8 µM.
Turning to `O=C(c1cncc(O)n1)N1CCC(c2ccc(-c3ccccc3C3CC3)cc2CO)C1` (centres unmarked) [Compound 2-131], at hTRPV3 [5], the IC50 is above 10 µM.
Consider `O=C(c1cc(O)ccn1)N1CCC(c2ccc(-c3ccccc3C3CC3)cc2CO)C1` (centres unmarked) [Compound 2-132], for which the pIC50 at hTRPV3 [5] is below 5.00.
As to `O=C(c1ccc(O)nn1)N1CCC(c2ccc(-c3ccccc3C3CC3)cc2CO)C1` (centres unmarked) [Compound 2-133], the pIC50 at hTRPV3 [5] was below 5.00.
Regarding `O=C(c1ccc(CO)cn1)N1CCC(c2ccc(-c3ccccc3C3CC3)cc2CO)C1` (centres unmarked) [Compound 2-134], the pIC50 on hTRPV3 [5] was 5.02.
Turning to `O=C(c1ccc(O)cn1)N1CCC(c2ccc(-c3ccccc3C3CC3)cc2CO)C1` (centres unmarked) [Compound 2-135], the pIC50 at hTRPV3 [5] is 5.51.
In the case of `Cc1nc(C(=O)N2CCC(c3ccc(-c4ccccc4C4CC4)cc3CO)C2)cnc1O` (centres unmarked) [Compound 2-136], on hTRPV3 [5], the pIC50 is 5.29.
Turning to `O=C(c1cnc(CO)cn1)N1CCC(c2ccc(-c3ccccc3C3CC3)cc2CO)C1` (centres unmarked) [Compound 2-137], the pIC50 at hTRPV3 [5] is below 5.00.
For the molecule `O=C(c1ccc(CO)nn1)N1CCC(c2ccc(-c3ccccc3C3CC3)cc2CO)C1` (centres unmarked) [Compound 2-138], the pIC50 on hTRPV3 [5] is below 5.00.
Turning to `O=C(c1ncccc1O)N1CCC(c2ccc(-c3ccccc3C3CC3)cc2CO)C1` (centres unmarked) [Compound 2-139], the pIC50 at hTRPV3 [5] is 5.11.
With `Cc1ccc(C(=O)N2CCC(c3ccc(-c4ccccc4C4CC4)cc3CO)C2)nc1O` (centres unmarked) [Compound 2-140], at hTRPV3 [5], the pIC50 was 5.25.
Regarding `COc1ccnc(C(=O)N2CCC(c3ccc(-c4ccccc4C4CC4)cc3CO)C2)c1` (centres unmarked) [Compound 2-141], at hTRPV3 [5], the pIC50 was 5.35.
Regarding `Cc1nnc(C(=O)N2CCC(c3ccc(-c4ccccc4C4CC4)cc3CO)C2)cc1O` (centres unmarked) [Compound 2-142], at hTRPV3 [5], the pIC50 was below 5.00.
As to `Cc1nc(C(=O)N2CCC(c3ccc(-c4ccccc4C4CC4)cc3CO)C2)ccc1O` (centres unmarked) [Compound 2-143], in series [2], the concentration in solution (solubility at 40 min) came to 0.0183 µM (≈ 0.00784 µg/mL). Further, on hTRPV3 [5], the IC50 is 0.86 µM. For the same molecule, the pIC50 at hTRPV3 [4] is 7.99.
Take `Cc1nc(C(=O)N2CCC(c3ccc(-c4ccccc4C4CC4)cc3CO)C2)ccc1CO` (centres unmarked) [Compound 2-144]: the pIC50 on hTRPV3 [5] is 5.49.
On to `O=C(c1ncc(Cl)cn1)N1CCC(c2ccc(-c3ccccc3C3CC3)cc2CO)C1` (centres unmarked) [Compound 2-159], for which the pIC50 at hTRPV3 [5] is 5.29.
Still for that read-out and setting: with `O=C(c1csc(CO)n1)N1CCC(c2ccc(-c3ccccc3C3CC3)cc2CO)C1` (centres unmarked) [Compound 2-160] the figure was below 5.00.
On the same count and under the same terms, with `Cn1cnc(C(=O)N2CCC(c3ccc(-c4ccccc4C4CC4)cc3CO)C2)c1` (centres unmarked) [Compound 2-161] the figure was 5.02; with `O=C(c1cc2n(n1)CCC2)N1CCC(c2ccc(-c3ccccc3C3CC3)cc2CO)C1` (centres unmarked) [Compound 2-162], 5.28.
Take `Cn1ccc(C(=O)N2CCC(c3ccc(-c4ccccc4C4CC4)cc3CO)C2)n1` (centres unmarked) [Compound 2-163]: the pIC50 on hTRPV3 [5] is below 5.00.
Consider `Cn1ccnc1C(=O)N1CCC(c2ccc(-c3ccccc3C3CC3)cc2CO)C1` (centres unmarked) [Compound 2-164], for which the pIC50 at hTRPV3 [5] is below 5.00.
For `CN1CCc2nc(C(=O)N3CCC(c4ccc(-c5ccccc5C5CC5)cc4CO)C3)sc2C1` (centres unmarked) [Compound 2-165], the pIC50 on hTRPV3 [5] is below 5.00.
Same read-out and setting: then `CCc1oc(C(=O)N2CCC(c3ccc(-c4ccccc4C4CC4)cc3CO)C2)nc1C` (centres unmarked) [Compound 2.145], with 5.35; and `Cc1coc(C(=O)N2CCC(c3ccc(-c4ccccc4C4CC4)cc3CO)C2)n1` (centres unmarked) [Compound 2.146], with 5.23; and `Cc1ocnc1C(=O)N1CCC(c2ccc(-c3ccccc3C3CC3)cc2CO)C1` (centres unmarked) [Compound 2.148], with 5.53.
`O=C(c1nccnc1O)N1CCC(c2ccc(-c3ccccc3C3CC3)cc2CO)C1` (centres unmarked) [Compound 2.150]: the pIC50 on hTRPV3 [5] is below 5.00.
Still for that read-out and setting: with `COc1cncc(C(=O)N2CCC(c3ccc(-c4ccccc4C4CC4)cc3CO)C2)n1` (centres unmarked) [Compound 2.151] the figure was 6.11; with `O=C(c1cccc(CO)n1)N1CCC(c2ccc(-c3ccccc3C3CC3)cc2CO)C1` (centres unmarked) [Compound 2.152], 5.34; with `O=C(c1cc(CO)ccn1)N1CCC(c2ccc(-c3ccccc3C3CC3)cc2CO)C1` (centres unmarked) [Compound 2.154], 5.38.
Still for that read-out and setting: with `COCc1ccnc(C(=O)N2CCC(c3ccc(-c4ccccc4C4CC4)cc3CO)C2)c1` (centres unmarked) [Compound 2.155] the figure was 5.03; with `COc1cnc(C(=O)N2CCC(c3ccc(-c4ccccc4C4CC4)cc3CO)C2)nc1` (centres unmarked) [Compound 2.158], 5.21.
Turning to “(S)-(2′-chloro-4-(3-(5-(trifluoromethyl)pyridin-2-yloxy)pyrrolidin-1-yl)biphenyl-3-yl)methanol [Compound 1-132]”, on hTRPV3 [1], the pIC50 was 7.00 to 8.00 and the IC50 was 32 nM. Moreover, the “Solubility Ringer (nM)” value in series [2] is given as “BLQ”. Also, the “LM T1/2 (min) (rat)” value in series [3] (1 μM) is given as 54.1 (rat) min. The “hTRPV3 HAMA IC50 (nM) (5 min)” value at hTRPV3 [4] (5 min) is reported as “no fit (5 min)”.
